Key:
[1] = biological target: Neuronal acetylcholine receptor; alpha3/beta4 (Homo sapiens, UniProt P30926+P32297); assay: Displacement of [3H]-epibatine from human alpha3beta4-nACHR expressed in […] cell membranes preincubated for 5 mins followed by overnight incubation with [3H]-epibatine by liquid scintillation counting analysis
HEK243 = assay: Selectivity ratio of Ki for human alpha3beta4-nACHR expressed in […] cells to Ki for alpha4beta2-nACHR in rat cerebral cortex membranes; type: cell-based
[2] = biological target: T1, Neuronal acetylcholine receptor; alpha4/beta2 (Rattus norvegicus, UniProt P09483+P12390); assay: Displacement of [3H]-epibatidine from alpha4beta2-nACHR in rat cerebral cortex membranes preincubated for 30 mins followed by overnight incubation with [3H]-epibatine; type: cell membranes, Membrane
[3] = biological target: T1, Neuronal acetylcholine receptor; alpha4/beta2; assay: Displacement of [3H]-cytisine from alpha4beta2-nACHR in rat whole brain membranes incubated for 60 mins; type: cell membranes, Membrane

T1 sequence (P09483 whole entry): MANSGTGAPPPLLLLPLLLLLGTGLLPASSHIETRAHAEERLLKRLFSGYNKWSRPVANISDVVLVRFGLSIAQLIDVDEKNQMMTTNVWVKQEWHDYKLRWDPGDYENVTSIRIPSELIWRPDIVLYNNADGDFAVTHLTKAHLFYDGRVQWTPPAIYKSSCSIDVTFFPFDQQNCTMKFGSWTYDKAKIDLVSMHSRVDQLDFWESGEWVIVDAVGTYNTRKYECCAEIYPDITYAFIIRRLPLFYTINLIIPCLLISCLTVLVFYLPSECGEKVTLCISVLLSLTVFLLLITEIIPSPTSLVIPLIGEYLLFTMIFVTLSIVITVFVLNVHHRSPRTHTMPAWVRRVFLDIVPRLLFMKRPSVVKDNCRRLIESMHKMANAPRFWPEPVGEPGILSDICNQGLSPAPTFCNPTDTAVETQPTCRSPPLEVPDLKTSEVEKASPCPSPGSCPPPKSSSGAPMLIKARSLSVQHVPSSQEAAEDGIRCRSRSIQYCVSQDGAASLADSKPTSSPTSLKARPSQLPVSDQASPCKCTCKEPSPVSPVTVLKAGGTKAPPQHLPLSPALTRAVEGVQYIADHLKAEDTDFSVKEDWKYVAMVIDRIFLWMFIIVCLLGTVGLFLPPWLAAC
T1 sequence (P12390 whole entry): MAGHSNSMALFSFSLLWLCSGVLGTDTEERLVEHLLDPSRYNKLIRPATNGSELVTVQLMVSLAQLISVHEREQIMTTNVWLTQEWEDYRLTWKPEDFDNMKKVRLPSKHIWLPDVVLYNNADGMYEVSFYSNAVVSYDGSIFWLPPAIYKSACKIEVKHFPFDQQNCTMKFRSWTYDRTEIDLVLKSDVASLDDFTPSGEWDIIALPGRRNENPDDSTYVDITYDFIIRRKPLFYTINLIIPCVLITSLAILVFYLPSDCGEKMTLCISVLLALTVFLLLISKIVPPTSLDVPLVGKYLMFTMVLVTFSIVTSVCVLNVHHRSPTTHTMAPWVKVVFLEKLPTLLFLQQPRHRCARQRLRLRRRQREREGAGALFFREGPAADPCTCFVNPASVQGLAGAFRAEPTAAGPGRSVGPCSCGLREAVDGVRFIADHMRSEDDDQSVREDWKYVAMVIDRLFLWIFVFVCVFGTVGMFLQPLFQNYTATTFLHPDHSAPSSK
Chain of Neuronal acetylcholine receptor; alpha3/beta4 (P30926 whole entry): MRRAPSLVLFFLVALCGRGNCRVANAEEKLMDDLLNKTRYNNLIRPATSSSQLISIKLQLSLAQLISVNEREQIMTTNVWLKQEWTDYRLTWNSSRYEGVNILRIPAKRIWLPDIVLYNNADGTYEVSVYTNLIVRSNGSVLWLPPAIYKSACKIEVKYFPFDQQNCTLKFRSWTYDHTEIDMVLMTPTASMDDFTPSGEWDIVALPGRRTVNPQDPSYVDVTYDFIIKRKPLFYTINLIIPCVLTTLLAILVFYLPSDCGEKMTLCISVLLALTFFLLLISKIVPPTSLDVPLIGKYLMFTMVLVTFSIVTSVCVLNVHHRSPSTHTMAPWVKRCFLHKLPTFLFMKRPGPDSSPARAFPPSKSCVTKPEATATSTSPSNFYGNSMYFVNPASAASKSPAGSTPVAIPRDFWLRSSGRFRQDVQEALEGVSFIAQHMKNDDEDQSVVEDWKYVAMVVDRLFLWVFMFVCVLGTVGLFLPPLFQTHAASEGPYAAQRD
Chain of Neuronal acetylcholine receptor; alpha3/beta4 (P32297 whole entry): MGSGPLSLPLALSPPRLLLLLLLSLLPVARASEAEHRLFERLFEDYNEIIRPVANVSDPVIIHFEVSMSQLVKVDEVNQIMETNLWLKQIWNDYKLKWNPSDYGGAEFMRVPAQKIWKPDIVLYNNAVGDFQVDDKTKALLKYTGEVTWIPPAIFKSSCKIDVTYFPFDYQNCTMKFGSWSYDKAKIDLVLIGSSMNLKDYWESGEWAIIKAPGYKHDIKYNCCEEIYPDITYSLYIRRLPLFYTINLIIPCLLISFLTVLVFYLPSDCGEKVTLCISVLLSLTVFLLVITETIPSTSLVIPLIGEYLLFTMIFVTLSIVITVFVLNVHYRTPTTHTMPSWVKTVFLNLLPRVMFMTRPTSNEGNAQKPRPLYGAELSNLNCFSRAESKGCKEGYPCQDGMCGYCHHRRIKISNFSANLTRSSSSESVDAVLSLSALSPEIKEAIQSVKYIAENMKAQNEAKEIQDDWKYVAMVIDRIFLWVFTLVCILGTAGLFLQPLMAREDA

SMILES	Ki [1] [nM]	Ratio Ki (HEK243)	Ki [2] [nM]	Ki [3] [nM]
CN1CCC[C@H]1COc1cc(O)cc(-c2ccc(O)cc2)c1	30	8	3.8	–
CN1CCC[C@H]1COc1cc(C#CCCCCO)cc([N+](=O)[O-])c1	1200	85	14.2	–
COc1cccc(OC[C@@H]2CCCN2C)c1	4500	7	600	–
CN1CCC[C@H]1COc1cc(O)cc(C#CCCCCO)c1	3100	131	23.7	–
CN1CCC[C@H]1COc1cc(-c2ccc(O)cc2)cc([N+](=O)[O-])c1	122	10	12	–
CN1CCC[C@H]1COc1cc(-c2ccccc2)cc([N+](=O)[O-])c1	947	3	330	–
CN1CCC[C@H]1COc1cccc([N+](=O)[O-])c1	946	30	31.2	9
CN1CCC[C@H]1COc1cccc(C#CCCCCO)c1	8300	2	4400	–
CN1CCC[C@H]1COc1cc(Br)cc([N+](=O)[O-])c1	415	8	55	–
CN1CCC[C@H]1COc1cc(O)cc(Br)c1	147	0.8	186	–
CN1CCC[C@H]1COc1cc(O)cc(-c2ccccc2)c1	200	0.4	528	–

From ChEMBL document CHEMBL3867476, “Novel 5-substituted 3-hydroxyphenyl and 3-nitrophenyl ethers of S-prolinol as α4β2-nicotinic acetylcholine receptor ligands” (Bioorg Med Chem Lett, 2016)
